US20180320217A1, “METHODS FOR SAMPLING AND MEASURING ORAL LAVAGE PROTEINS” (The Procter & Gamble Company, priority 2017, published 2018)
Values joined by “and” are separate entries in the source; they are usually repeats but may differ in a detail not shown here. Equal values may be shown once. “Also recorded” adds a separate entry of the source.

Key:
[1] = system: diaphorase; test: Formation of formazan dyes: NADH and diaphorase, absence of malate (TABLE 7); type: biochemical, Clostridium kluyveri; conditions: NADH and diaphorase, absence of malate
[2] = system: diaphorase; test: Formation of formazan dyes: NADH, diaphorase and malate (TABLE 8); type: biochemical, Clostridium kluyveri; conditions: NADH, diaphorase and malate
[3] = system: Malate dehydrogenase and diaphorase; test: Formation of formazan dyes: Malate dehydrogenase and diaphorase, absence of malate (TABLE 9); type: biochemical, pig heart
[4] = system: Malate dehydrogenase and diaphorase; test: Formation of formazan dyes: Malate dehydrogenase, diaphorase and malate (TABLE 10); type: biochemical, pig heart
[5] = system: oral lavage; test: Formation of formazan dyes: oral lavage and diaphorase, not malate (TABLE 11); type: biochemical, human
[6] = system: oral lavage; test: Formation of formazan dyes: oral lavage, malate and diaphorase (TABLE 12); type: biochemical, human; conditions: oral lavage, malate and diaphorase
[7] = system: diaphorase; test: Formation of formazan dyes: only diaphorase, not malate (TABLE 13); type: biochemical, Clostridium kluyveri; conditions: mean of three experiments
[8] = system: diaphorase; test: Formation of formazan dyes: only diaphorase and malate (TABLE 14); type: biochemical, Clostridium kluyveri; conditions: mean of three experiments
[9] = Formation of formazan dyes: NADH and 1-methoxy PMS, absence of malate (TABLE 15); type: biochemical; conditions: disodium salt
[10] = Formation of formazan dyes: NADH, malate and 1-methoxy PMS (TABLE 16); type: biochemical
[11] = system: oral lavage; test: Formation of formazan dyes: oral lavage and 1-Methoxy PMS, absence of malate (TABLE 19); type: biochemical, human; conditions: disodium salt
[12] = Formation of formazan dyes: control buffer and 1-Methoxy PMS, absence of malate (TABLE 21); type: biochemical; conditions: disodium salt
[13] = Formation of formazan dyes: control buffer, malate and 1-Methoxy PMS (TABLE 22); type: biochemical
[14] = system: diaphorase; test: Effect of concentrations of tetrazolium salts on formation of formazan dyes (FIGS. 4A-4G); type: biochemical; conditions: 15 mM NADH+H, 20 μg diaphorase, pH 7.5; FIGS. 4A to 4G
Procedure: On the idea that higher concentrations of tetrazolium salts in the assay buffer would likely result in more formazan dyes in the reaction, various concentrations of tetrazolium salts were added to a reaction buffer and the formation of formazan dyes were measured at 0, 30 and 60 minutes. […] The reactions were performed at room temperature. Absorbance was taken at 0, 30 and 60 minutes.

[15] = target: T1, Malate dehydrogenase (Sus scrofa, UniProt P00346); test: Formation of formazan dyes: Malate dehydrogenase and 1-Methoxy PMS, absence of malate (TABLE 17); type: biochemical, pig heart; design: L-malate dehydrogenase (pig heart); purchased Sigma-Aldrich 10127248001 / 10127914001
T1 sequence (P00346 25-338): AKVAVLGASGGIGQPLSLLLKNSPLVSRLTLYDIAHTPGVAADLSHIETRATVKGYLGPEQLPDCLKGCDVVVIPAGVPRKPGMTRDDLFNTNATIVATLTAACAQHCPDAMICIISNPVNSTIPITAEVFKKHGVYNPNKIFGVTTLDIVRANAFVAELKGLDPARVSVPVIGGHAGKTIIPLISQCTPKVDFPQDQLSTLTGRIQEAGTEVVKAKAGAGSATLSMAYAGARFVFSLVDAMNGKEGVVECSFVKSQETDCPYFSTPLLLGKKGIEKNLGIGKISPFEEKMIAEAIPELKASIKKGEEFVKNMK

COc1cc(-c2ccc(-[n+]3nc(-c4ccc(C(=O)N(CCS(=O)(=O)[O-])CCS(=O)(=O)[O-])cc4)nn3-c3nc4ccccc4s3)c(OC)c2)ccc1-[n+]1nc(-c2ccc(C(=O)N(CCS(=O)(=O)[O-])CCS(=O)(=O)[O-])cc2)nn1-c1nc2ccccc2s1.[Na+].[Na+] [WST-5, 2,2′-Dibenzothiazolyl-5,5′-bis[4-di(2-sulfoethyl)carbamoylphenyl]-3,3′-(3,3′-dimethoxy 4,4′-biphenylene)ditetrazolium, disodium salt]
Formation of formazan dyes, absorbance, Means 0 h ([1]; 0 h): 2.81 | Formation of formazan dyes, absorbance, Means 1 h ([1]; 1 h): 2.81 | Formation of formazan dyes, absorbance, Means 2 h ([1]; 2 h): 2.79 | Formation of formazan dyes, absorbance, Means 3 h ([1]; 3 h): 2.78 | Formation of formazan dyes, absorbance, Means 4 h ([1]; 4 h): 2.86 | Formation of formazan dyes, absorbance, Means 6 h ([1]; 6 h): 2.83 | Formation of formazan dyes, absorbance, Means 8 h ([1]; 8 h): 2.77 | Formation of formazan dyes, absorbance, Means 10 h ([1]; 10 h): 2.74 | Formation of formazan dyes, absorbance, Means 12 h ([1]; 12 h): 2.66 | Formation of formazan dyes, absorbance, Means 0 h ([2]; 0 h): 2.62 | Formation of formazan dyes, absorbance, Means 1 h ([2]; 1 h): 2.48 | Formation of formazan dyes, absorbance, Means 2 h ([2]; 2 h): 2.44 | Formation of formazan dyes, absorbance, Means 3 h ([2]; 3 h): 2.41 | Formation of formazan dyes, absorbance, Means 4 h ([2]; 4 h): 2.45 | Formation of formazan dyes, absorbance, Means 6 h ([2]; 6 h): 2.41 | Formation of formazan dyes, absorbance, Means 8 h ([2]; 8 h): 2.36 | Formation of formazan dyes, absorbance, Means 10 h ([2]; 10 h): 2.31 | Formation of formazan dyes, absorbance, Means 12 h ([2]; 12 h): 2.26 | Formation of formazan dyes, absorbance, Means 0 h ([3]; Malate dehydrogenase and diaphorase, absence of malate, 0 h): 0.83 | Formation of formazan dyes, absorbance, Means 1 h ([3]; Malate dehydrogenase and diaphorase, absence of malate, 1 h): 1.35 | Formation of formazan dyes, absorbance, Means 2 h ([3]; Malate dehydrogenase and diaphorase, absence of malate, 2 h): 1.58 | Formation of formazan dyes, absorbance, Means 3 h ([3]; Malate dehydrogenase and diaphorase, absence of malate, 3 h): 1.74 | Formation of formazan dyes, absorbance, Means 4 h ([3]; Malate dehydrogenase and diaphorase, absence of malate, 4 h): 1.86 | Formation of formazan dyes, absorbance, Means 6 h ([3]; Malate dehydrogenase and diaphorase, absence of malate, 6 h): 2.06 | Formation of formazan dyes, absorbance, Means 8 h ([3]; Malate dehydrogenase and diaphorase, absence of malate, 8 h): 2.24 | Formation of formazan dyes, absorbance, Means 10 h ([3]; Malate dehydrogenase and diaphorase, absence of malate, 10 h): 2.33 | Formation of formazan dyes, absorbance, Means 12 h ([3]; Malate dehydrogenase and diaphorase, absence of malate, 12 h): 2.33 | reduction of tetrazolium dye in the absence of substrate malate ([3]; malate dehydrogenase and diaphorase (TABLE 9)): partially reduced | Formation of formazan dyes, absorbance, Means 0 h ([4]; Malate dehydrogenase, diaphorase and malate, 0 h): 0.75 | Formation of formazan dyes, absorbance, Means 1 h ([4]; Malate dehydrogenase, diaphorase and malate, 1 h): 1.32 | Formation of formazan dyes, absorbance, Means 2 h ([4]; Malate dehydrogenase, diaphorase and malate, 2 h): 1.67 | Formation of formazan dyes, absorbance, Means 3 h ([4]; Malate dehydrogenase, diaphorase and malate, 3 h): 1.93 | Formation of formazan dyes, absorbance, Means 4 h ([4]; Malate dehydrogenase, diaphorase and malate, 4 h): 2.04 | Formation of formazan dyes, absorbance, Means 6 h ([4]; Malate dehydrogenase, diaphorase and malate, 6 h): 2.20 | Formation of formazan dyes, absorbance, Means 8 h ([4]; Malate dehydrogenase, diaphorase and malate, 8 h): 2.34 | Formation of formazan dyes, absorbance, Means 10 h ([4]; Malate dehydrogenase, diaphorase and malate, 10 h): 2.49 | Formation of formazan dyes, absorbance, Means 12 h ([4]; Malate dehydrogenase, diaphorase and malate, 12 h): 2.60 | conversion to reduced formazan dyes ([4]; malate dehydrogenase, diaphorase and malate (TABLE 10), disodium salt): converted to reduced formazan dyes in a time-dependent fashion; also recorded: able to catalyze the reduction | Formation of formazan dyes, absorbance, Means 0 h ([5]; oral lavage and diaphorase, not malate, 0 h): 0.60 | Formation of formazan dyes, absorbance, Means 1 h ([5]; oral lavage and diaphorase, not malate, 1 h): 0.72 | Formation of formazan dyes, absorbance, Means 2 h ([5]; oral lavage and diaphorase, not malate, 2 h): 0.77 | Formation of formazan dyes, absorbance, Means 3 h ([5]; oral lavage and diaphorase, not malate, 3 h): 0.80 | Formation of formazan dyes, absorbance, Means 4 h ([5]; oral lavage and diaphorase, not malate, 4 h): 0.78 | Formation of formazan dyes, absorbance, Means 6 h ([5]; oral lavage and diaphorase, not malate, 6 h): 0.83 | Formation of formazan dyes, absorbance, Means 8 h ([5]; oral lavage and diaphorase, not malate, 8 h): 0.84 | Formation of formazan dyes, absorbance, Means 10 h ([5]; oral lavage and diaphorase, not malate, 10 h): 0.81 | Formation of formazan dyes, absorbance, Means 12 h ([5]; oral lavage and diaphorase, not malate, 12 h): 0.80 | reduction to formazan dyes by pooled oral lavage ([5]; pooled oral lavage of high bleeder group, diaphorase, no added malate (TABLE 11)): partially reduced to formazan dyes | Formation of formazan dyes, absorbance, Means 0 h ([6]; 0 h): 0.57 | Formation of formazan dyes, absorbance, Means 1 h ([6]; 1 h): 0.74 | Formation of formazan dyes, absorbance, Means 2 h ([6]; 2 h): 0.80 | Formation of formazan dyes, absorbance, Means 3 h ([6]; 3 h): 0.75 | Formation of formazan dyes, absorbance, Means 4 h ([6]; 4 h): 0.67 | Formation of formazan dyes, absorbance, Means 6 h ([6]; 6 h): 0.85 | Formation of formazan dyes, absorbance, Means 8 h ([6]; 8 h): 0.90 | Formation of formazan dyes, absorbance, Means 10 h ([6]; 10 h): 1.02 | Formation of formazan dyes, absorbance, Means 12 h ([6]; 12 h): 1.08 | Absorbance, formation of formazan dyes (Means) ([7]; 0 h): 0.25 | Absorbance, formation of formazan dyes (Means) ([7]; 1 h): 0.30 | Absorbance, formation of formazan dyes (Means) ([7]; 2 h): 0.35 | Absorbance, formation of formazan dyes (Means) ([7]; 3 h): 0.32 | Absorbance, formation of formazan dyes (Means) ([7]; 4 h): 0.32 | Absorbance, formation of formazan dyes (Means) ([7]; 6 h): 0.38 | Absorbance, formation of formazan dyes (Means) ([7]; 8 h): 0.41 | Absorbance, formation of formazan dyes (Means) ([7]; 10 h): 0.38 | Absorbance, formation of formazan dyes (Means) ([7]; 12 h): 0.36 | Absorbance, formation of formazan dyes (Means) ([8]; 0 h): 0.09 | Absorbance, formation of formazan dyes (Means) ([8]; 1 h): 0.12 | Absorbance, formation of formazan dyes (Means) ([8]; 2 h): 0.15 | Absorbance, formation of formazan dyes (Means) ([8]; 3 h): 0.18 | Absorbance, formation of formazan dyes (Means) ([8]; 4 h): 0.21 | Absorbance, formation of formazan dyes (Means) ([8]; 6 h): 0.23 | Absorbance, formation of formazan dyes (Means) ([8]; 8 h): 0.26 | Absorbance, formation of formazan dyes (Means) ([8]; 10 h): 0.29 | Absorbance, formation of formazan dyes (Means) ([8]; 12 h): 0.32 | Absorbance, formation of formazan dyes (Means) [9]: 2.12 and 2.14 and 2.18 and 2.22 | Absorbance, formation of formazan dyes (Means) [10]: 1.84 | Absorbance, formation of formazan dyes (Means) [11]: 0.77 and 1.11 and 1.29 and 1.39 | Absorbance, formation of formazan dyes (Means) [12]: 0.33 and 0.45 and 0.48 and 0.55 | Means absorbance 0 h [13]: 0.13 | Means absorbance 1 h [13]: 0.15 | Means absorbance 2 h [13]: 0.16 | Means absorbance 3 h [13]: 0.16 | concentration of tetrazolium salt at which absorbance reached peaks [14]: 1 mM | reduction by malate dehydrogenase alone [15]: did not catalyze the reduction | Absorbance, formation of formazan dyes (Means) ([15]; disodium salt): 0.24 and 0.37 and 0.41 and 0.43

COc1cc([N+](=O)[O-])ccc1-[n+]1nc(-c2ccccc2S(=O)(=O)O)nn1-c1ccc([N+](=O)[O-])cc1 [EZMTT]
concentration of tetrazolium salt at which absorbance reached peaks [14]: 2 mM
